According to ChEMBL document CHEMBL1201862, “PubChem BioAssay data set” (2004):
Activity calls are given as the source filed them.

Columns and labels:
P388 = experiment: cells; assay type: functional; settings: Mus musculus
SN12K1 = experiment: cells; assay type: functional; settings: Homo sapiens
P388/ADR = experiment: cells; assay type: functional; settings: Mus musculus
Protein RecA = biological target: T1, Protein RecA (Mycobacterium tuberculosis, UniProt P9WHJ3); experiment: Fluorescence Cell-Free Homogeneous Dose Retest to Identify Inhibitors of RecA-Intein Splicing Activity. [Related pubchem assays (depositor defined):AID2097, AID2223, AID489010, AID492950]; assay type: functional
T1 sequence (P9WHJ3 whole entry): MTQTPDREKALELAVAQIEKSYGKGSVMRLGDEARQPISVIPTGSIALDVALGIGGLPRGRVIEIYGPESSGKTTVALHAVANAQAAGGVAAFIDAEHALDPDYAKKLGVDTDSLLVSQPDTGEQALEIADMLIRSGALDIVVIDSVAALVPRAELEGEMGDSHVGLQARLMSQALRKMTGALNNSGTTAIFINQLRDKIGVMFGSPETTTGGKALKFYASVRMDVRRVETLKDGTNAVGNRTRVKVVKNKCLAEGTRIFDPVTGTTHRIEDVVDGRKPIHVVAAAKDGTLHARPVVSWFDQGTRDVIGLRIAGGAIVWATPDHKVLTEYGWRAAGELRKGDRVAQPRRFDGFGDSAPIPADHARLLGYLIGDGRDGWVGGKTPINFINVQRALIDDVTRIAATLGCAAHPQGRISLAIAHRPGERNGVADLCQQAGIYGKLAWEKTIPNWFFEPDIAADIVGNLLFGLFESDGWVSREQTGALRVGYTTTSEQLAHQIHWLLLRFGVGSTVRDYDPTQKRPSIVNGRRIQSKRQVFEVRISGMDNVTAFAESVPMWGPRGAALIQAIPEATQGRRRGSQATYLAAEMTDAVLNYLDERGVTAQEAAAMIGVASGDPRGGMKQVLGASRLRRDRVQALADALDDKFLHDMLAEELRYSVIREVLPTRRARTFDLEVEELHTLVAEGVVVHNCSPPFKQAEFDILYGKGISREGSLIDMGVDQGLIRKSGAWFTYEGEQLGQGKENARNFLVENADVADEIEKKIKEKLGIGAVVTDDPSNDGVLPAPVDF

[1] = biological target: T2, Replicative DNA helicase DnaB (Mycobacterium tuberculosis, UniProt P9WMR3); experiment: DnaB intein splicing inhibitors, dose response, biochemical, cell-free fluorescence (AID 449749); assay type: functional
T2 sequence (P9WMR3 whole entry): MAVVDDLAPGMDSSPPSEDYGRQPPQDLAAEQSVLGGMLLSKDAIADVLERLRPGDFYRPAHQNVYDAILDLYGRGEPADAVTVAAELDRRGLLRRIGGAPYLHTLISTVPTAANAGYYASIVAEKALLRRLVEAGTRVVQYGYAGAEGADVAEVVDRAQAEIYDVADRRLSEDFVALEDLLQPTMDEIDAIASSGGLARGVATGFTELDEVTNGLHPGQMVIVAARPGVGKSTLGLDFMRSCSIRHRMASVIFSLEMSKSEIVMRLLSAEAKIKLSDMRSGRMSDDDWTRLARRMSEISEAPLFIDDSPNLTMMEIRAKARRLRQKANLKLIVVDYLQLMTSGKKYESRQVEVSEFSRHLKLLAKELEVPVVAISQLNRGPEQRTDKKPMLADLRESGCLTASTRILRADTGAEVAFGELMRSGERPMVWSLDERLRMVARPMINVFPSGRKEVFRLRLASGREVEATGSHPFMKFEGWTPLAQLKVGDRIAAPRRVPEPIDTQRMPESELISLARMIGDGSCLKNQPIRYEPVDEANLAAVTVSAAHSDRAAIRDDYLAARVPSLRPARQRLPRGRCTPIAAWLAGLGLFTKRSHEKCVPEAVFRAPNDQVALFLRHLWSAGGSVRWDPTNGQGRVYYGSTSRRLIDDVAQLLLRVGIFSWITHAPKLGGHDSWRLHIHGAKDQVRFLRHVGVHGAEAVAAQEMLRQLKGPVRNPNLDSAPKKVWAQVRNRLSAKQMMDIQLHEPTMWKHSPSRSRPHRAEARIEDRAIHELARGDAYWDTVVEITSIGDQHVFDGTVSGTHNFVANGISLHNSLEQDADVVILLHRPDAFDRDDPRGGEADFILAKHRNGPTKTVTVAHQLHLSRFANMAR

cells [2] = assay type: functional, cell-based
Cytochrome P450 2C9 = Cytochrome P450 2C9 (Homo sapiens, UniProt P11712)
Chain of Cytochrome P450 2C9 (P11712 whole entry): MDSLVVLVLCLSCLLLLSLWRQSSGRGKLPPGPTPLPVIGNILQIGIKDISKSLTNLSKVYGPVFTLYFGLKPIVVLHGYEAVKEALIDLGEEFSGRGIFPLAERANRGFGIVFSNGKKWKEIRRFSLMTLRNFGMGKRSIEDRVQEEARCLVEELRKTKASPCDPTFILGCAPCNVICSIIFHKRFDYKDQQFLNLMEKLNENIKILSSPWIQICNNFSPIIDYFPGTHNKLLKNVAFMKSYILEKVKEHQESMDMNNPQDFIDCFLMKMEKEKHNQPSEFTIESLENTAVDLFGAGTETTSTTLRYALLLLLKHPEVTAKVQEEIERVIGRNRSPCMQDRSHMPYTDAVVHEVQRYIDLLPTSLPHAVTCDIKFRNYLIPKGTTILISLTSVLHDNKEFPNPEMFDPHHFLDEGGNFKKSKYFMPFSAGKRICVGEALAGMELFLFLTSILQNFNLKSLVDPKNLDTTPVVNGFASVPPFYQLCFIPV

cells [3] = assay type: functional, cell-based; remark: listed apart in the source
Cytochrome P450 2D6 = Cytochrome P450 2D6 (Homo sapiens, UniProt P10635);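 note: CYP2D6 member of a cytochrome P450 panel assay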
Chain of Cytochrome P450 2D6 (P10635 whole entry): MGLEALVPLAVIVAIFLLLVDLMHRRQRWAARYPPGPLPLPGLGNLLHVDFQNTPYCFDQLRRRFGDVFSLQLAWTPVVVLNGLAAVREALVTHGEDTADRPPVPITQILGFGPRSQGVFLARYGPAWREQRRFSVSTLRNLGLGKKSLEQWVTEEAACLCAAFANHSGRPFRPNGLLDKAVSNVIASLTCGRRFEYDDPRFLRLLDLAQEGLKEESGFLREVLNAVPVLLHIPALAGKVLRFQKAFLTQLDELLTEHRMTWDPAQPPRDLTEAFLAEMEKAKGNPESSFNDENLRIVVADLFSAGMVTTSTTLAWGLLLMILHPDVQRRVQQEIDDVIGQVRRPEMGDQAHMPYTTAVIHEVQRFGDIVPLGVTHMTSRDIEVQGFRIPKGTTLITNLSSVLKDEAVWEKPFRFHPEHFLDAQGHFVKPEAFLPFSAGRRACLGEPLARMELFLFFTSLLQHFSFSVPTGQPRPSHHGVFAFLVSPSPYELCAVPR

Cytochrome P450 2C19 = Cytochrome P450 2C19 (Homo sapiens, UniProt P33261); experiment: Cytochrome panel assay with activity outcomes. Panel member name: p450-cyp2c19 Compounds with AC50 equal or less than 10 uM are considered active; assay type: functional; settings: read-out: AC50
Chain of Cytochrome P450 2C19 (P33261 whole entry): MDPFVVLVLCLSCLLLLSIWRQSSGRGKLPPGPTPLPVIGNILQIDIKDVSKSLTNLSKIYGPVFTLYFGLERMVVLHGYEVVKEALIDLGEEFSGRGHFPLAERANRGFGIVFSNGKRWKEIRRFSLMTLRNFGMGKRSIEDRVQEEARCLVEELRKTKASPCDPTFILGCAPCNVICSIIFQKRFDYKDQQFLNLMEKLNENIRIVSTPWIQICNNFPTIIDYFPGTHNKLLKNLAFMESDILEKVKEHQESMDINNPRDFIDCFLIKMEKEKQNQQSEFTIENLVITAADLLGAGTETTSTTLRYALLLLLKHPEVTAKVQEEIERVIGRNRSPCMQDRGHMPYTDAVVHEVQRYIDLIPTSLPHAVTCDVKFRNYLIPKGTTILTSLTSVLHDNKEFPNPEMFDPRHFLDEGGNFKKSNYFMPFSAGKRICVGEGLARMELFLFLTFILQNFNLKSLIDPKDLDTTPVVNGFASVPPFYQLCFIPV

Cytochrome P450 1A2 = biological target: T3, Cytochrome P450 1A2 (Homo sapiens, UniProt P05177);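 note: PubChem cytochrome P450 panel assay, CYP1A2 panel member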
T3 sequence (P05177 whole entry): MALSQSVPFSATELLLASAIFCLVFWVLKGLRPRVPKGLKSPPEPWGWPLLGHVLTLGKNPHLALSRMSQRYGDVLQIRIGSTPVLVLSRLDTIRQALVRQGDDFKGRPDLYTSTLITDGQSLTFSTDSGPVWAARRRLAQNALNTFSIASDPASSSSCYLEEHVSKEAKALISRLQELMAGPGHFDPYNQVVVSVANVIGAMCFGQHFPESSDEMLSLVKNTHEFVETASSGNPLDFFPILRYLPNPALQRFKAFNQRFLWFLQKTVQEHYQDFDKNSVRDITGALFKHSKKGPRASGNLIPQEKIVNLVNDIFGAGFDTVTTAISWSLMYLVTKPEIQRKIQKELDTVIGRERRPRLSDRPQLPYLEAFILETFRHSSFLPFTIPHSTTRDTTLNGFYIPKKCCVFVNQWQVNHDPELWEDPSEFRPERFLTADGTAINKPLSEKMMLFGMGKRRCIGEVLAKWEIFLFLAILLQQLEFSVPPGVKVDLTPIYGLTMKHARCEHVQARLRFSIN

[4] = Luminescence Cell-Based Dose Response HTS to Identify Activators of Luciferase Translation or Activity in H4 […] Cells. [Related pubchem assays: 1829 (Project Summary), 1814 (Primary HTS)]; assay type: functional
[5] = growth suppression of PTEN-null colon cells, dose response, cell-based, HCT116 PTEN knockout (AID 1047); assay type: functional;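 note: HCT116 colon tumor cells with PTEN knocked out; cells exposed to compound for 60 hours before readout; potency for loss of cell viability measured by luminescence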
[6] = HEp-2 cell cytotoxicity, dose response, cytotoxicity control for RSV inhibitor project, HTS (AID 2410); assay type: functional; settings: human respiratory syncytial virus
Cytochrome P450 3A4 = Cytochrome P450 3A4 (Homo sapiens, UniProt P08684);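 note: CYP3A4 tested as one member of a cytochrome P450 panel screen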
Chain of Cytochrome P450 3A4 (P08684 whole entry): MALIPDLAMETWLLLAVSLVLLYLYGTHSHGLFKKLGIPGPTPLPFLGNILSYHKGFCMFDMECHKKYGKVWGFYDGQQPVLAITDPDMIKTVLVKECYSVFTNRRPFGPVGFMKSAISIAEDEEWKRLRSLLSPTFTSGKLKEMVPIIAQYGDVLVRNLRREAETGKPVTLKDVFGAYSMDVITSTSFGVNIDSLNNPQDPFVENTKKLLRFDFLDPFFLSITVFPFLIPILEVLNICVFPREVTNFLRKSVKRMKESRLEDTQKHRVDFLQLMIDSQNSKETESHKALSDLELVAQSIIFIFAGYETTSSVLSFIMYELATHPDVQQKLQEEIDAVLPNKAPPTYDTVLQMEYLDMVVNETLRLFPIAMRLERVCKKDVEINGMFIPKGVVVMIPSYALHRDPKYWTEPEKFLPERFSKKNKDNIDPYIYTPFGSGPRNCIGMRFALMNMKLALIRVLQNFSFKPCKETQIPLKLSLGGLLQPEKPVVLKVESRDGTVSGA

Structure (SMILES) | GI50 (P388) | GI50 (SN12K1) | GI50 (P388/ADR) | AC50 (Cytochrome P450 2C19) | further results
C/C=C1\C[C@@H]2C(OC)Nc3cc(O)c(OC)cc3C(=O)N2C1 (stereo not given in full) | 0.01 µM (active) | 0.01 µM (active) | 0.01 µM (active) |  | 
CCCN1C(=O)/C(=C(/O)C(=O)OCC)C(c2ccc(OC)c(OC)c2)C1=O (stereo not given) | > 100 µM (inactive) | > 100 µM (inactive) | > 100 µM (inactive) |  | 
CC(=O)Nc1cccc(OC(=O)COc2ccc(Br)cc2)c1 |  |  |  |  | EC50 (Protein RecA): 20.6 µM (active); AC50 [1]: 11 µM (active)
COc1cccc2c1C(=O)c1c(O)c3c(c(O)c1C2=O)C[C@@](O)(C(=O)CN1CCOCC1)C[C@@H]3OC1CC(N)C(O)C(C)O1 (stereo not given in full) | 0.361 µM (active) | 0.649 µM (active) | 14.7 µM (inactive) |  | 
COc1ccc(CC(NC(C)=O)C(=O)NC2CCN(C(=O)Nc3ccc(Cl)cc3)CC2)cc1OC (stereo not given) |  |  |  |  | EC50 (cells [2]): > 350 µM (not active); AC50 (Cytochrome P450 2C9): 12.6 µM (inconclusive); EC50 (cells [3]): > 350 µM (not active)
CCOC(=O)N1CCC2(CC1)C(C#N)=C(N)Oc1[nH]nc(C)c12 |  |  |  |  | EC50 (Protein RecA): 1.43 µM (active); AC50 [1]: 8.2 µM (active)
NCCSCCc1ccccc1 |  |  |  | 3.16 µM (inconclusive) | AC50 (Cytochrome P450 2D6): 3.16 µM (inconclusive)
COc1cc2c(cc1OC)-c1c/c(=N/c3c(C)cc(C)cc3C)n(C)c(=O)n1CC2 |  |  |  | 31.6 µM (inconclusive) | AC50 (Cytochrome P450 2D6): 31.6 µM (inconclusive)
c1ccc(-c2csc3ncn4cnnc4c23)cc1 |  |  |  | 11.2 µM (inconclusive) | AC50 (Cytochrome P450 1A2): 0.251 µM (inconclusive); AC50 (Cytochrome P450 2C9): 20 µM (inconclusive)
CCc1ccc(-c2ccc(C(=O)C(F)(F)F)[nH]2)cc1 |  |  |  | 5.01 µM (inconclusive) | EC50 [4]: 0.19 µM (active)
CC1=NCCc2cc3[nH]c4ccccc4c3cc21 | 6.73 µM (inactive) | 14.6 µM (inactive) | 9.04 µM (inactive) |  | 
Nc1ccc2[nH]ncc2c1 |  |  |  |  | EC50 (Protein RecA): 36.1 µM (active); AC50 [1]: 324 µM (active)
CCN(CC)C(=O)CCCOc1ccc(Cl)cc1Cl |  |  |  |  | EC50 [5]: 137 µM (active); CC50 [6]: 22.1 µM (active)
Cc1ccc(C(=O)C2C(=O)c3ccccc3C2=O)cc1 |  |  |  | 22.4 µM (inconclusive) | AC50 (Cytochrome P450 1A2): 25.1 µM (inconclusive)
COc1cccc(C2=NOC(C(=O)NCc3ccccn3)C2)c1 (stereo not given) |  |  |  | 25.1 µM (inconclusive) | AC50 (Cytochrome P450 3A4): 15.8 µM (inconclusive)
Cn1c(=O)c(CCc2ccccc2)nc2cncnc21 |  |  |  | 39.8 µM (inconclusive) | AC50 (Cytochrome P450 2C9): 31.6 µM (inconclusive); AC50 (Cytochrome P450 3A4): 15.8 µM (inconclusive)
COc1cccc(Cn2c(=O)c(-c3ccccc3)nc3cnc(N4CCNCC4)nc32)c1 |  |  |  | 39.8 µM (inconclusive) | AC50 (Cytochrome P450 1A2): 3.16 µM (inconclusive); AC50 (Cytochrome P450 2D6): 10 µM (inconclusive)
Cc1ccc(-c2csc3nc(SCC(=O)N(C)C)n(Cc4ccccc4)c(=O)c23)cc1 |  |  |  |  | EC50 (cells [2]): > 350 µM (not active); EC50 (cells [3]): > 350 µM (not active)

Structure (SMILES) | GI50 (P388) | GI50 (SN12K1) | GI50 (P388/ADR) | AC50 (Cytochrome P450 2C19) | further results
Cc1ccc(Oc2nc(-c3ccccc3)ncc2S(C)(=O)=O)cc1 |  |  |  | 3.16 µM (inconclusive) | AC50 (Cytochrome P450 3A4): 14.1 µM (inconclusive)
Nc1nccc2c1ncn2C1C=C(CO)C(O)C1O (stereo not given) | 0.0982 µM (active) | 0.811 µM (active) | 0.051 µM (active) |  | 
O=c1ccn([C@@H]2C=C(CO)[C@@H](O)[C@H]2O)c(=O)[nH]1 | > 625 µM (inactive) | > 625 µM (inactive) |  |  | 
COc1ccc(C2COc3cc(OC(C)=O)c(OC(C)=O)cc3C2)cc1 (stereo not given) | 3.08 µM (inactive) | 13.9 µM (inactive) | 2.87 µM (inactive) |  | 
CCCCCC/C=C1\CCC(CN(C)C)C1=O (stereo not given) | 1.08 µM (active) | 2.17 µM (inactive) | 0.673 µM (active) |  | 
Clc1c(CSc2nc3ccccc3o2)nc2sccn12 |  |  |  |  | EC50 (cells [2]): > 350 µM (not active); EC50 (cells [3]): 21 µM (active)
CCCCN(C)/N=N/c1[nH]cnc1C(N)=O | 63.8 µM (inactive) | 81.7 µM (inactive) | > 100 µM (inactive) |  | 
CN1C(=O)C(=C(N)COc2ccccc2)C(=O)N(C)C1=O |  |  |  | 15.8 µM (inconclusive) | AC50 (Cytochrome P450 2C9): 14.1 µM (inconclusive)
CCOc1cc(/C=N/NC(=O)c2cccnc2)ccc1OCc1ccc(C(=O)OC)o1 |  |  |  |  | EC50 (cells [2]): > 350 µM (not active); EC50 (cells [3]): > 350 µM (not active)
CCC1CCCCN1CCCNC(=O)C1CCN(c2nnc(-n3cccc3)s2)CC1 (stereo not given) |  |  |  |  | EC50 (cells [2]): > 350 µM (not active); EC50 (cells [3]): > 350 µM (not active)
CCN(CC)CCCC(C)Nc1c2ccc(Cl)cc2nc2cc(Cl)ccc12 (stereo not given) | 1.87 µM (inactive) | 2.81 µM (inactive) | 1.71 µM (inactive) |  | 
CCN(CCN(C)C)C(=O)C1CCN(S(=O)(=O)c2c(C)noc2/C=C/c2ccccc2F)CC1 |  |  |  |  | EC50 (cells [2]): > 350 µM (not active); EC50 (cells [3]): 21.2 µM (active)
O=C1C2=C(C3=NCCc4c[nH]c1c43)c1c(cc(Br)c(O)c1Br)CCN2 | 3.37 µM (inactive) | 6.97 µM (inactive) | 10.2 µM (inactive) |  | 
Cc1ccc(-n2c(SCC(=O)N3CCOCC3)nnc2-c2cccnc2)cc1 |  |  |  | 22.4 µM (inconclusive) | AC50 (Cytochrome P450 1A2): 10 µM (inconclusive); AC50 (Cytochrome P450 2C9): 17.8 µM (inconclusive); AC50 (Cytochrome P450 3A4): 10 µM (inconclusive)
Nc1ccc2cn[nH]c2c1 |  |  |  |  | EC50 (Protein RecA): 9.02 µM (active); AC50 [1]: 4.45 µM (active)
CS(=O)(=O)Nc1cccc(-c2cc(NCc3ccccc3)ncn2)c1 |  |  |  | 39.8 µM (inconclusive) | AC50 (Cytochrome P450 2D6): 31.6 µM (inconclusive)
COc1cc([C@@H]2c3cc4c(c(O)c3C[C@H]3COC(=O)[C@@H]32)OCO4)cc(OC)c1O | 0.0261 µM (active) | 0.0208 µM (active) | 0.02 µM (active) |  | 
CCOC(=O)CN(CC)C(=O)NC12CC3CC(CC(C3)C1)C2 | 175 µM (inactive) | 188 µM (inactive) | 120 µM (inactive) |  | 
